# Reference: ChEMBL document CHEMBL3885881, “DrugMatrix”
# Species on record: Rattus norvegicus
# Assay: DrugMatrix - Regimen: Daily Repeat
# Assay type: toxicity, organism-based, Sprague-Dawley
# Parameters: regimen Daily Repeat, gender Male, age 6-8 weeks
# Conditions: in vivo, po, route oral GAVAGE, vehicle 100 % WATER; for ABSOLUTE BASOPHIL / ABSOLUTE EOSINOPHIL / ABSOLUTE LYMPHOCYTE / ABSOLUTE MONOCYTE / ABSOLUTE SEGMENTED NEUTROPHIL / BASOPHIL / EOSINOPHIL / ERYTHROCYTE COUNT / HEMATOCRIT / HEMOGLOBIN / LEUKOCYTE COUNT / LYMPHOCYTE / MEAN CORPUSCULAR HEMOGLOBIN / MEAN CORPUSCULAR HEMOGLOBIN CONCENTRATION / MEAN CORPUSCULAR VOLUME / MONOCYTE / NEUTROPHIL / NUCLEATED RED BLOOD CELLS / PLATELET COUNT: tissue Blood; for ALANINE AMINOTRANSFERASE / ALBUMIN / ALKALINE PHOSPHATASE / ASPARTATE AMINOTRANSFERASE / BLOOD UREA NITROGEN / CARBON DIOXIDE / CHLORIDE / CHOLESTEROL / CREATINE PHOSPHOKINASE / CREATININE / GLUCOSE / LACTATE DEHYDROGENASE / LIPASE / PHOSPHORUS / POTASSIUM / SODIUM / TOTAL BILIRUBIN / TOTAL PROTEIN / URIC ACID: tissue Plasma
# [1] = 1 mg/kg, 120 h, dose level Low, time 5 day
# [2] = 10 mg/kg, 72 h, dose level High, time 3 day
# [3] = 10 mg/kg, 120 h, dose level High, time 5 day
smiles,measurement,setting,value
CC[C@H](C)[C@H]1O[C@]2(C=C[C@@H]1C)C[C@@H]1C[C@@H](C/C=C(\C)[C@@H](O[C@H]3C[C@H](OC)[C@@H](O[C@H]4C[C@H](OC)[C@@H](O)[C@H](C)O4)[C@H](C)O3)[C@@H](C)/C=C/C=C3\CO[C@@H]4[C@H](O)C(C)=C[C@@H](C(=O)O1)[C@]34O)O2.CO[C@H]1C[C@H](O[C@H]2[C@H](C)O[C@@H](O[C@@H]3/C(C)=C/C[C@@H]4C[C@@H](C[C@]5(C=C[C@H](C)[C@@H](C(C)C)O5)O4)OC(=O)[C@@H]4C=C(C)[C@@H](O)[C@H]5OC/C(=C\C=C\[C@@H]3C)[C@]54O)C[C@@H]2OC)O[C@@H](C)[C@@H]1O [ABAMECTIN],ABSOLUTE BASOPHIL,[1],0 CELLS/uL
same,ABSOLUTE EOSINOPHIL,[1],144.67 CELLS/uL
same,ABSOLUTE LYMPHOCYTE,[1],15431.33 CELLS/uL
same,ABSOLUTE MONOCYTE,[1],370 CELLS/uL
same,ABSOLUTE SEGMENTED NEUTROPHIL,[1],1387.33 CELLS/uL
same,BASOPHIL,[1],0%
same,EOSINOPHIL,[1],0.67%
same,ERYTHROCYTE COUNT,[1],5.65 x10E6/uL
same,HEMATOCRIT,[1],33.97%
same,HEMOGLOBIN,[1],13.77 G/DL
same,LEUKOCYTE COUNT,[1],17.33 x10E3/uL
same,LYMPHOCYTE,[1],89.67%
same,MEAN CORPUSCULAR HEMOGLOBIN,[1],24.4 pg
same,MEAN CORPUSCULAR HEMOGLOBIN CONCENTRATION,[1],40.53 G/DL
same,MEAN CORPUSCULAR VOLUME,[1],60.13 fL
same,MONOCYTE,[1],2%
same,NEUTROPHIL,[1],7.67%
same,NUCLEATED RED BLOOD CELLS,[1],0 /100WBC
same,PLATELET COUNT,[1],1317.33 x10E3/uL
same,ALANINE AMINOTRANSFERASE,[1],48.67 u/L
same,ALBUMIN,[1],4.2 G/DL
same,ALKALINE PHOSPHATASE,[1],323.67 u/L
same,ASPARTATE AMINOTRANSFERASE,[1],72 u/L
same,BLOOD UREA NITROGEN,[1],14.67 mg/dL
same,CARBON DIOXIDE,[1],25 mmol/L
same,CHLORIDE,[1],102 MEQ/L
same,CHOLESTEROL,[1],70.33 mg/dL
same,CREATINE PHOSPHOKINASE,[1],216.33 u/L
same,CREATININE,[1],0.13 mg/dL
same,GLUCOSE,[1],162.33 mg/dL
same,LACTATE DEHYDROGENASE,[1],87.67 u/L
same,LIPASE,[1],9 u/L
same,PHOSPHORUS,[1],11.33 mg/dL
same,POTASSIUM,[1],6.2 MEQ/L
same,SODIUM,[1],144.03 MEQ/L
same,TOTAL BILIRUBIN,[1],0.17 mg/dL
same,TOTAL PROTEIN,[1],5.87 G/DL
same,URIC ACID,[1],1.5 mg/dL
same,ABSOLUTE BASOPHIL,[2],0 CELLS/uL
same,ABSOLUTE EOSINOPHIL,[2],36.33 CELLS/uL
same,ABSOLUTE LYMPHOCYTE,[2],12016 CELLS/uL
same,ABSOLUTE MONOCYTE,[2],120 CELLS/uL
same,ABSOLUTE SEGMENTED NEUTROPHIL,[2],861 CELLS/uL
same,BASOPHIL,[2],0%
same,EOSINOPHIL,[2],0.33%
same,ERYTHROCYTE COUNT,[2],5.75 x10E6/uL
same,HEMATOCRIT,[2],35.6%
same,HEMOGLOBIN,[2],13.9 G/DL
same,LEUKOCYTE COUNT,[2],13.03 x10E3/uL
same,LYMPHOCYTE,[2],92.33%
same,MEAN CORPUSCULAR HEMOGLOBIN,[2],24.2 pg
same,MEAN CORPUSCULAR HEMOGLOBIN CONCENTRATION,[2],39.07 G/DL
same,MEAN CORPUSCULAR VOLUME,[2],61.93 fL
same,MONOCYTE,[2],1%
same,NEUTROPHIL,[2],6.33%
same,NUCLEATED RED BLOOD CELLS,[2],0 /100WBC
same,PLATELET COUNT,[2],1234 x10E3/uL
same,ALANINE AMINOTRANSFERASE,[2],46.33 u/L
same,ALBUMIN,[2],4.23 G/DL
same,ALKALINE PHOSPHATASE,[2],426 u/L
same,ASPARTATE AMINOTRANSFERASE,[2],78.33 u/L
same,BLOOD UREA NITROGEN,[2],14.67 mg/dL
same,CARBON DIOXIDE,[2],25 mmol/L
same,CHLORIDE,[2],99.67 MEQ/L
same,CHOLESTEROL,[2],64 mg/dL
same,CREATINE PHOSPHOKINASE,[2],208.33 u/L
same,CREATININE,[2],0.18 mg/dL
same,GLUCOSE,[2],136.33 mg/dL
same,LACTATE DEHYDROGENASE,[2],150.33 u/L
same,LIPASE,[2],11 u/L
same,PHOSPHORUS,[2],11.37 mg/dL
same,POTASSIUM,[2],6.65 MEQ/L
same,SODIUM,[2],143.17 MEQ/L
same,TOTAL BILIRUBIN,[2],0.17 mg/dL
same,TOTAL PROTEIN,[2],5.87 G/DL
same,URIC ACID,[2],1.33 mg/dL
same,ABSOLUTE BASOPHIL,[3],0 CELLS/uL
same,ABSOLUTE EOSINOPHIL,[3],0 CELLS/uL
same,ABSOLUTE LYMPHOCYTE,[3],9787 CELLS/uL
same,ABSOLUTE MONOCYTE,[3],273.67 CELLS/uL
same,ABSOLUTE SEGMENTED NEUTROPHIL,[3],1239.33 CELLS/uL
same,BASOPHIL,[3],0%
same,EOSINOPHIL,[3],0%
same,ERYTHROCYTE COUNT,[3],6.35 x10E6/uL
same,HEMATOCRIT,[3],39.13%
same,HEMOGLOBIN,[3],15.47 G/DL
same,LEUKOCYTE COUNT,[3],11.3 x10E3/uL
same,LYMPHOCYTE,[3],85.33%
same,MEAN CORPUSCULAR HEMOGLOBIN,[3],24.43 pg
same,MEAN CORPUSCULAR HEMOGLOBIN CONCENTRATION,[3],39.53 G/DL
same,MEAN CORPUSCULAR VOLUME,[3],61.9 fL
same,MONOCYTE,[3],2.67%
same,NEUTROPHIL,[3],12%
same,NUCLEATED RED BLOOD CELLS,[3],0.33 /100WBC
same,PLATELET COUNT,[3],1492.67 x10E3/uL
same,ALANINE AMINOTRANSFERASE,[3],38 u/L
same,ALBUMIN,[3],4.63 G/DL
same,ALKALINE PHOSPHATASE,[3],309 u/L
same,ASPARTATE AMINOTRANSFERASE,[3],72.33 u/L
same,BLOOD UREA NITROGEN,[3],17 mg/dL
same,CARBON DIOXIDE,[3],27.33 mmol/L
same,CHLORIDE,[3],98.67 MEQ/L
same,CHOLESTEROL,[3],79.33 mg/dL
same,CREATINE PHOSPHOKINASE,[3],356.67 u/L
same,CREATININE,[3],0.14 mg/dL
same,GLUCOSE,[3],153.33 mg/dL
same,LACTATE DEHYDROGENASE,[3],446.33 u/L
same,LIPASE,[3],8.67 u/L
same,PHOSPHORUS,[3],10.47 mg/dL
same,POTASSIUM,[3],6.1 MEQ/L
same,SODIUM,[3],143.9 MEQ/L
same,TOTAL BILIRUBIN,[3],0.13 mg/dL
same,TOTAL PROTEIN,[3],6.7 G/DL
same,URIC ACID,[3],1.5 mg/dL
